Reference: patent US20120083471A1, “Novel Compounds, Pharmaceutical Compositions Containing Same, Methods of Use for Same, and Methods for Preparing Same” (priority 2008, published 2012)
“Also recorded” adds a separate entry of the source.

What was measured:
Assay type in all cases: in vivo, mouse
DIO mice [1] = experiment: Serum chemistry and Oil Red O liver histology of 16 d treated DIO mice
Method: (§1) For acute studies, 6 DIO or lean mice were treated with a single dose of FSG67 (20 mg/kg, i.p.) approximately 3 hrs past lights-on. Animal weights and food consumption were measured 18 h after treatment. Following euthanization, the hypothalmuses were harvested to measure orexigenic and anorexigenic neuropeptide gene expression. In the chronic studies, DIO mice, 4-10 animals per group, were treated daily with FSG67 (5 mg/kg, i.p.) or with RMPI vehicle for the days indicated. Body weight and food intake were measured daily. In one study, a cohort of mice was pair-fed with amounts consumed by the FSG67-treated animals and mice were monitored with indirect calorimetry (Oxymax Equal Flow System®, Columbus Instruments, Columbus, Ohio). Measurements of VO2 (ml/kg/hr) and VCO2 (ml/kg/hr) were performed and recorded every 15 min. The respiratory exchange ratio (RER) was calculated by Oxymax software, version 5.9, and is defined as ratio of VCO2 to VO2 33. After completion of the treatment course, animals were euthanized by CO2 inhalation 4 hrs following the final dose of FSG67. Tissues were harvested immediately for RNA extraction; serum was collected and analyzed for glucose, cholesterol, and triglyceride measurements (Bioanalytics, Gaithersburg, Md.). Fresh liver tissue was snap frozen in liquid N2, sectioned, and stained with hematoxylin and Oil Red O to visualize triglyceride droplets.
Consistent with the systemic reduction in adiposity, GPAT inhibition reversed hepatic steatosis in DIO mice. […] Cholesterol levels remained unchanged (FIG. 14d). The resolution of the hepatic steatosis in FSG67 treated mice may have contributed to the normalization of blood glucose levels.

DIO mice [2] = experiment: Chronic 16 d FSG67 treatment of DIO mice with indirect calorimetry and pair-fed group; details: 5 mg/kg ip daily
Method: as §1
In the second chronic treatment study, indirect calorimetry was utilized to study changes in metabolism during GPAT inhibition. DIO mice (8 per group) were treated with FSG67 (5 mg/kg, ip), or pair-fed to FSG67 treated animals. Indirect calorimetry was utilized to measure changes in oxygen consumption (VO2) and respiratory exchange ratio (RER) between pair-fed and treated animals. After 16 days of treatment, the FSG67 treated mice lost 9.5±0.6% of body mass, pair-fed lost 5.5±0.9%, while vehicle controls gained 3.5±1.3% (FIG. 12c). The weight loss in the FSG67 treated animals was significant compared to both vehicle controls and pair-fed animals (p<0.0001, 2-way ANOVA). […] RER was reduced in FSG67 treated mice (0.732±0.002) compared to pair-fed (0.782±0.006) (p<0.0001, 2-way ANOVA) (FIG. 12f) indicating increased use of fatty acids for fuel in the FSG67 treated animals. The combination of increased VO2 and reduced RER in the FSG67 treated animals are consistent with increased fatty acid oxidation and energy utilization which likely contribute to their reduced body mass compared to the pair-fed controls.

DIO mice [3] = experiment: Acute single-dose FSG67 treatment of DIO mice (body weight, food intake); details: single 20 mg/kg ip
Excerpt: DIO and lean mouse models. All animal experimentation was done in accordance with guidelines on animal care and use as established by the Johns Hopkins University School of Medicine IACUC. DIO C57BL6J male mice were obtained from Jackson Laboratory (Bar Harbor, ME) and fed a synthetic diet comprised of 60% calories from fat, 20% from carbohydrate, and 20% from protein (5.2 kcal/g) post-weaning through the experimental procedures (D12492i, Research Diets, Inc., New Brunswick, N.J.). […]
For acute studies, 6 DIO or lean mice were treated with a single dose of FSG67 (20 mg/kg, i.p.) approximately 3 hrs past lights-on. Animal weights and food consumption were measured 18 h after treatment. […] Body weight and food intake were measured daily. In one study, a cohort of mice was pair-fed with amounts consumed by the FSG67-treated animals and mice were monitored with indirect calorimetry (Oxymax Equal Flow System®, Columbus Instruments, Columbus, Ohio). Measurements of VO2 (ml/kg/hr) and VCO2 (ml/kg/hr) were performed and recorded every 15 min. The respiratory exchange ratio (RER) was calculated by Oxymax software, version 5.9, and is defined as ratio of VCO2 to VO2 33. […] Tissues were harvested immediately for RNA extraction; serum was collected and analyzed for glucose, cholesterol, and triglyceride measurements (Bioanalytics, Gaithersburg, Md.). […]

lean mice = experiment: Conditioned taste aversion, two-bottle choice; details: 5 mg/kg or 20 mg/kg ip, listed as FSG67
Method: Conditioned taste aversion. Ten days before testing, eighteen male C57/BL6 mice were placed on a schedule of 2 h daytime access to water. On the test day, mice were divided into three groups and were given access to 0.15% sodium saccharin rather than water for 30 min. Immediately after saccharin access, mice were injected ip with RPMI vehicle or FSG67 (5 and 20 mg/kg body wt) and were allowed water access for the remaining 90 min. Twenty-four hours later, mice were given 2h access to a two-bottle choice test of 0.15% saccharin vs. water. Intakes of both solutions were recorded, and data were expressed as saccharin preference (100× saccharin intake/saccharin intake+water intake).
GPAT inhibition with FSG67 decreased body weight in DIO mice consuming a high fat diet. FSG67 treated DIO mice lost 4.3±0.5% (1.7±0.2 g) of body mass versus a 5.3±0.4% (2.1±0.2 g) loss for fasted mice (FIG. 11c). Compared to the vehicle control mice which lost 2.5±0.6% (1.0±0.2 g) the weight loss was significant in both the FSG67 treated (p=0.026, 2-tailed t-test) and fasted mice (p=0.002, 2-tailed t-test). […] Thus, the reduction in food intake from FSG67 was not due to sickness behavior (FIG. 11e).

DIO mice [4] = experiment: 10 d FSG67 treatment of DIO mice with Q-NMR assessment of adiposity
Method: Q-NMR assessment of adiposity. Following 10 days of FSG67 treatment or vehicle by ip administration, the DIO mice were euthanized and carcasses were stored at −80° C. Carcasses were thawed for Q-NMR analysis. Measurement of fat, lean, and water mass was performed using an EchoMRI-100™ (Echo Medical Systems, Houston, Tex.) in the Molecular and Comparative Pathobiology Phenotyping Core.
Since FSG67 increased fatty acid oxidation and reduced food intake in DIO mice, we next used Q-NMR analysis to measure lean, fat and water mass in FSG67 treated and control mice to determine the composition of the tissue loss with FSG67 treatment. In an additional chronic treatment experiment, 10 DIO mice were treated with FSG67 (5 mg/kg/d, ip) and 10 received vehicle for 10 days. The FSG67 treated mice lost 6.1±0.9 g (13.1±1.9%) while vehicle controls lost 1.1±0.4 g (2.3±0.8%) (p<0.0001. 2-way ANOVA). […] At the conclusion of the experiment, the FSG67 treated mice weighed 4.4 g less than the vehicle controls, which could be accounted for by the 4.0 g difference in fat mass. Thus, GPAT inhibition selectively reduces adiposity in DIO mice.

## CCCCCCCCCS(=O)(=O)Nc1ccccc1C(=O)O [Compound 15g, 2-(Nonylsulfonamido)benzoic acid]
DIO mice [1]
  liver histology: inflammation, necrosis, hepatocellular injury: No inflammation, necrosis, or hepatocellular injury
  reduction in serum triglyceride levels vs pair-fed or vehicle: not statistically significant
DIO mice [1]; 5 mg/kg ip daily
  serum glucose: 153.3 ± 10.5 mg/dL
  serum triglyceride: 111.3 ± 10.9 mg/dL
DIO mice [1]; listed as FSG67
  hepatic steatosis (Oil red O liver sections): nearly complete resolution; also recorded: almost complete amelioration of fat accumulation
  serum cholesterol levels: unchanged; also recorded: unaffected
DIO mice [2]; 16 days
  average daily food consumption: 2.0 ± 0.1 g/day
  body mass lost: 9.5±0.6%
  reduction of average daily food consumption vs vehicle: 33%
DIO mice [2]; indirect calorimetry
  average RER: 0.732±0.002
  average VO2, % of pre-treatment value: 106.5±1.1%
DIO mice [3]
  food consumption: 0.5 ± 0.1 g
  food consumption, % of vehicle control: 41.6%
Lean mice
  conditioned taste aversion (saccharin intake): failed to produce a significant reduction in saccharin intake; also recorded: did not induce conditioned tasted aversion
DIO mice [4]; 5 mg/kg ip daily, 10 d
  reduction in fat mass compared to vehicle controls (Q-NMR): 4.0 g
DIO mice [4]; 5 mg/kg ip daily, 10 d, listed as FSG67, 5 mg/kg
  lean and water mass (Q-NMR): no significant change; also recorded: unaffected
DIO mice [4]; conclusion of 10 d experiment
  final weight difference to vehicle controls: 4.4 g
